Experimental data published in US4552895A, “Furo[3,2-b]furan-2-(3H)-ones” (Eli Lilly and Company, priority 1983, dated 1985).

Tests used:
angiogenesis factor = test: Tumor angiogenesis inhibition in vivo: serpentine vessels induced by lysosomal-mitochondrial preparation from 3683 Morris hepatoma in mice; design: species or system mice (SPF/ND4 female); conditions: Mus musculus, ip, mice sacrificed after 24 hours, average number of serpentine vessels vs control
Experimental: Lysosomal-mitochondrial pellets containing angiogenesis factor are prepared from 3683 Morris hepatoma. The pellet is diluted with 7-8 ml. of 15% ficoll. At this dilution, 8-10 serpentine vessels are usually produced per 0.2 cc. injection as described below for the control group.
Next, 15 SPF/ND4 female mice weighing 20-22 g. are shaved on the left side and then divided into three groupss of five each. One group (drug group) is injected subcutaneously and laterally with 0.2 cc. of the lysosomal-mitochondrial preparation diluted with 15% ficoll. This group of mice is then dosed individually by the intraperitoneal route with 0.5 cc. of a solution or suspension in a standard vehicle containing the compound under test, usually at an initial dose level of 300 mg./kg. If this dose level is toxic, two-fold dilutions are made until all mice survive a single dose. The second group of mice (control group) is injected subcutaneously and laterally with 0.2 cc. of the lysosomal-mitochondrial suspension diluted with ficoll and dosed intraperitoneally with 0.5 cc. of the vehicle alone. The third group of mice (negative control) is injected with the ficoll solution only (without the lysosomal-mitochondrial pellet) without treatment with compound or vehicle. The mice are sacrificed after 24 hours. Each mouse is placed on its side on a dissecting board with the shaved side up. Starting at the flank, the skin is cut straight to the back of the animal. A similar cut is made behind the front leg. The skin is then cut along the back making a flap of about one inch by two inches. The skin is carefully separated from the connective tissue by using forceps and a scalpel. The skin flap is then laid back exposing the lysosomal-mitochondrial implant which is attached to the skin. The skin flap is gently flattened out and with the use of a binocular dissecting scope, serpentine vessels are observed around the lysosomal-mitochondrial implant and their number counted. All observations of the number of serpentine vessels are made at the same power of the microscope (1×). The average number of serpentine vessels for each group is calculated. The percent inhibition is then calculated according to the following equation. [formula] where sv=averge number of serpentine vessels.
If the negative control group described above has any serpentine vessels, the test is invalid due to contamination of the ficoll solution.

[1] = tested on: Collagen-Induced Arthritis; test: Collagen-induced arthritis assay (type II collagen, hindpaw volume) in rats; format: in vivo, inbred Lewis male rats; conditions: oral gavage 5 days per week from day 1 to day 28 or 30
Experimental: This test method is a collagen arthritis assay carried out as follows.
Type II collagen is isolated from bovine articular cartilage by the method of Strawich and Nimni [Biochemistry, 10, 3905 (1971)]. The collagen is dissolved in 0.1M acetic acid and stored at -20° C. Type II collagen solution is diluted to 2 mg./ml. concentration and emulsified thoroughly with an equal volume of incomplete Freund's adjuvant (ICFA). The emulsion containing approximately 0.5 mg. of collagen is injected intradermally on day 0 to groups of 6 inbred Lewis male rats (Charles River Breeders; 170-200 g.) at various sites in the dorsal area. The hindpaw volumes of each rat are measured and recorded three times a week throughout the test period to assess the inflammatory reaction. The test group animals receive compounds under test as suspensions in carboxymethylcellulose vehicle, by oral gavage, 5 days per week (Monday-Friday), beginning on day 1. Control animals receive vehicle without a test compound. At the end of the test (day 28 or 30), the blood of these animals is drawn by cardiac puncture and the serum anti-type II collagen antibody levels are estimated by passive hemagglutination technique, using glutaraldehyde treated sheep red cells, to which type II collagen is conjugated [Avrameas et al., Immunochemistry, 6, 67 (1969); Andriopoulos et al., Arth. Rheum., 19, 613 (1976)]. The cellular response or delayed-type hypersensitivity response to type II collagen is measured by the radiometric ear index assay [Kostiala, Immunology, 33, 561 (1977)]. In certain experiments, the bone damage occurring because of immunization with type II collagen and the effects of drugs are determined from the radiographs of the hindpaws of two or three representative animals from each group. Injections of ICFA without collagen II were employed to some rats as a negative control; these rats received only […] vehicle during the test.
The % inhibition is calculated according to the following formula: [formula] where Vt is the hindpaw volume of a compound-treated animal (test group), Vc is the hindpaw volume of a non-compound-treated animal ([…] vehicle only-the control group), the Vv is the hindpaw volume of a vehicle ([…]) treated animal which received ICFA with no collagen II (negative control group).

O=C1OC2C(O)COC2(O)C1(O)Cc1ccc(F)cc1 (stereo not drawn) [Example 1, [3R-(3aα,6α,6aα)]-tetrahydro-3,3a,6-trihydroxy-3-[(4-fluorophenyl)methyl]furo[3,2-b]furan-2(3H)-one]
inhibition in vivo at 25 mg/kg (angiogenesis factor): 62%
Inhibition of Collagen-Induced Arthritis, % inhibition ([1]; 25 mg./kg.): 94%

O=C1OC2C(O)COC2(O)C1(O)Cc1cccc(Br)c1 (stereo not drawn) [Example 2]
inhibition in vivo at 25 mg/kg (angiogenesis factor): 45%

O=C1OC2C(O)COC2(O)C1(O)Cc1cccc(Cl)c1 (stereo not drawn) [Example 3]
inhibition in vivo at 25 mg/kg (angiogenesis factor): 55%
Inhibition of Collagen-Induced Arthritis, % inhibition ([1]; 15 mg./kg.): 100%

O=C1OC2C(O)COC2(O)C1(O)Cc1ccccc1Cl (stereo not drawn) [Example 4]
inhibition in vivo at 25 mg/kg (angiogenesis factor): 38%

O=C1OC2C(O)COC2(O)C1(O)Cc1ccc(Cl)cc1 (stereo not drawn) [Example 5]
inhibition in vivo at 25 mg/kg (angiogenesis factor): 52%
Inhibition of Collagen-Induced Arthritis, % inhibition ([1]; 15 mg./kg.): 81%

O=C1OC2C(O)COC2(O)C1(O)Cc1ccccc1F (stereo not drawn) [Example 6]
inhibition in vivo at 25 mg/kg (angiogenesis factor): 33%

O=C1OC2C(O)COC2(O)C1(O)Cc1cccc(F)c1 (stereo not drawn) [Example 7]
inhibition in vivo at 25 mg/kg (angiogenesis factor): 57%
Inhibition of Collagen-Induced Arthritis, % inhibition ([1]; 25 mg./kg.): 100%

O=C1OC2C(O)COC2(O)C1(O)Cc1ccc(C(F)(F)F)cc1 (stereo not drawn) [Example 8]
inhibition in vivo at 25 mg/kg (angiogenesis factor): 55%

Cc1cccc(CC2(O)C(=O)OC3C(O)COC32O)c1 (stereo not drawn) [Example 9]
inhibition in vivo at 25 mg/kg (angiogenesis factor): 48%

Cc1ccccc1CC1(O)C(=O)OC2C(O)COC21O (stereo not drawn) [Example 10]
inhibition in vivo at 25 mg/kg (angiogenesis factor): 48%

Cc1ccc(CC2(O)C(=O)OC3C(O)COC32O)cc1 (stereo not drawn) [Example 11]
inhibition in vivo at 25 mg/kg (angiogenesis factor): 62%
Inhibition of Collagen-Induced Arthritis, % inhibition ([1]; 15 mg./kg.): 94%

Cc1ccc(C)c(CC2(O)C(=O)OC3C(O)COC32O)c1 (stereo not drawn) [Example 12]
inhibition in vivo at 25 mg/kg (angiogenesis factor): 58%
Inhibition of Collagen-Induced Arthritis, % inhibition ([1]; 25 mg./kg.): 23%
